According to patent US11192888B2, “Antibacterial compounds” (priority 2017, dated 2021):
Read-outs that look alike come from different tables or passages of the source.

Assays:
[1] = amide bond, 24-membered ring, PyBOP/HOBt/DIPEA, 0.5 mM
[2] = test system: P. aeruginosa clinical strains and PAO1 (wild-type strain); assay: Antibiotic sensitivity of P. aeruginosa clinical strains and PAO1 (MIC); format: cell-based, Pseudomonas aeruginosa
Description: In this regard, four clinical isolates of P. aeruginosa were obtained from the University of Nottingham.

Compound	MIC of antibiotic ([2]; strain PAO1) [µM]	MIC of antibiotic ([2]; strain W4) [µM]	MIC of antibiotic ([2]; strain W14) [µM]	MIC of antibiotic ([2]; strain W23) [µM]	MIC of antibiotic ([2]; strain W46) [µM]	also measured
CC(C)=C1NC(=O)[C@@H](C)NC(=O)CNC(=O)[C@H](Cc2c[nH]c3cccc(Br)c23)NC(=O)[C@H](Cc2c[nH]c3ccccc23)NC(=O)c2csc(n2)[C@@H](C)NC(=O)CN(C)C1=O [Cyclo[D-Ala-Thz-Trp-Trp(4-Br)-Gly-D-Ala-Dhv-Sar]]						ring closure, yield after HPLC ([1]; from H-dAla-Thz-Trp-Trp(4-Br)-Gly-dAla-Dhv-Sar-OH?): 42%
C/C=C1\NC(=O)[C@@H](C)NC(=O)CNC(=O)[C@H](Cc2c[nH]c3cccc(Br)c23)NC(=O)[C@H](Cc2c[nH]c3ccccc23)NC(=O)c2csc(n2)[C@@H](C)NC(=O)CN(C)C1=O [Cyclo[D-Ala-Thz-Trp-Trp(4-Br)-Gly-D-Ala-Dhb-Sar]]						ring closure, yield after HPLC ([1]; from H-dAla-Thz-Trp-Trp(4-Br)-Gly-dAla-Dhb-Sar-OH?): 35%
CC(C)/C=C1\NC(=O)[C@@H](C)NC(=O)CNC(=O)[C@H](Cc2c[nH]c3cccc(Br)c23)NC(=O)[C@H](Cc2c[nH]c3ccccc23)NC(=O)c2csc(n2)[C@@H](C)NC(=O)CN(C)C1=O [Cyclo[D-Ala-Thz-Trp-Trp(4-Br)-Gly-D-Ala-Dhl-Sar]]						ring closure, yield after HPLC ([1]; from H-dAla-Thz-Trp-Trp(4-Br)-Gly-dAla-Dhl-Sar-OH?): 35%
NCC[C@H](O)C(=O)N[C@@H]1C[C@H](N)[C@@H](O[C@H]2O[C@H](CN)[C@@H](O)[C@H](O)[C@H]2O)[C@H](O)[C@H]1O[C@H]1O[C@H](CO)[C@@H](O)[C@H](N)[C@H]1O [Amikacin]	<14	24	41	<14	<14	
C/C=C1\NC(=O)[C@@H](C)NC(=O)CNC(=O)[C@H](Cc2c[nH]c3cccc(Br)c23)NC(=O)[C@H](Cc2c[nH]c3ccccc23)NC(=O)c2csc(n2)[C@@H](COC)NC(=O)CN(C)C1=O [Cyclo[D-Ser(OMe)-Thz-Trp-Trp(4-Br)-Gly-D-Ala-Dhb-Sar]]						ring closure, yield after HPLC ([1]; from H-dSer(OMe)-Thz-Trp-Trp(4-Br)-Gly-dAla-Dhb-Sar-OH?): 19%
C[C@@H](O)[C@H]1C(=O)N2C(C(=O)O)=C(S[C@@H]3CN[C@H](C(=O)N(C)C)C3)[C@H](C)[C@H]12 [Meropenem]	>45	>45	9	>45	14	
C=C1NC(=O)[C@@H](C)NC(=O)CNC(=O)[C@H](Cc2c[nH]c3cccc(Br)c23)NC(=O)[C@H](Cc2c[nH]c3ccccc23)NC(=O)c2csc(n2)[C@@H](COC)NC(=O)CN(C)C1=O [Cyclo[D-Ser(OMe)-Thz-Trp-Trp(4-Br)-Gly-D-Ala-Dha-Sar]]						ring closure, yield after HPLC ([1]; from H-dSer(OMe)-Thz-Trp-Trp(4-Br)-Gly-dAla-Dha-Sar-OH?): 6%
Colistin	3	3	>8	2	2	
NC[C@H]1O[C@H](O[C@H]2[C@H](O)[C@@H](O[C@H]3O[C@H](CO)[C@@H](O)[C@H](N)[C@H]3O)[C@H](N)C[C@@H]2N)[C@H](N)C[C@@H]1O [Tobramycin]	<4	9	25	<4	<4	
C=C1NC(=O)[C@@H](C)NC(=O)CNC(=O)[C@H](Cc2c[nH]c3cccc(F)c23)NC(=O)[C@H](Cc2c[nH]c3ccccc23)NC(=O)c2csc(n2)[C@@H](C)NC(=O)CN(C)C1=O [Cyclo[D-Ala-Thz-Trp-Trp(4-F)-Gly-D-Ala-Dha-Sar]]						ring closure, yield after HPLC ([1]; from H-dAla-Thz-Trp-Trp(4-F)-Gly-dAla-Dha-Sar-OH?): 2%
